{
  "source": "patent US20110281944A1",
  "about": "“METHOD OF A RHEIN COMPOUND FOR INHIBITING PANCREATIC ISLET BETA-CELL DYSFUNCTION AND PREVENTING OR TREATING A PANCREATIC ISLET BETA-CELL DYSFUNCTION RELATED DISORDER” (Research Institute of Nephrology of Nanjing PLA, China, priority 2010, published 2011)",
  "test": "Oral absorption kinetics and pharmacokinetics of rhein in rats",
  "assay_type": "in vivo, Wistar rats",
  "description": "Grouping of the animals and experimental procedure: Eighteen Wistar rats (male: female=1:1; body weight=180˜210 g) are randomly divided into 3 groups, 6 animal each group (male 3, female 3). The animals are fastened but supplied with free water for 10 h, and then are administrated ig with 35 mg/kg, 70 mg/kg or 140 mg/kg rhein. Blood samples are collected from carotid artery cannula at 0.033 h, 0.083 h, 0.25 h, 0.5 h, 0.75 h, 1 h, 2 h, 3 h, 4 h, 6 h, 8 h, 12 h and 14 h after administration, and centrifuged. 50 μl plasma is used for HPLC-fluorescence (FLD) analysis. The obtained plasma rhein concentration-time data are used for calculating pharmacokinetic parameters via corresponding pharmacokinetic programmes.",
  "note": "Where “and” joins values, the source holds several entries; their conditions need not be identical. Equal values may be shown once.",
  "data": [
    {"smiles": "O=C(O)c1cc(O)c2c(c1)C(=O)c1cccc(O)c1C2=O", "note": "[rhein]", "values": [
      {"measurement": "Plasma rhein concentration", "setting": "gavage 35 mg/kg, 0.033 h, individual rats 1-6, 35 mg/kg", "result": "15.34 µg/mL and 19.11 µg/mL and 10.10 µg/mL and 10.54 µg/mL and 24.21 µg/mL and 9.45 µg/mL"},
      {"measurement": "Plasma rhein concentration", "setting": "gavage 35 mg/kg, 0.033 h, mean (X) of 6 rats", "result": 14.79, "unit": "µg/mL"},
      {"measurement": "Plasma rhein concentration", "setting": "gavage 35 mg/kg, 0.083 h, individual rats 1-6, 35 mg/kg", "result": "22.07 µg/mL and 44.52 µg/mL and 22.33 µg/mL and 16.18 µg/mL and 40.94 µg/mL and 19.99 µg/mL"},
      {"measurement": "Plasma rhein concentration", "setting": "gavage 35 mg/kg, 0.083 h, mean (X) of 6 rats", "result": 27.67, "unit": "µg/mL"},
      {"measurement": "Plasma rhein concentration", "setting": "gavage 35 mg/kg, 0.25 h, individual rats 1-6, 35 mg/kg", "result": "27.43 µg/mL and 45.05 µg/mL and 26.00 µg/mL and 26.86 µg/mL and 59.77 µg/mL and 24.59 µg/mL"},
      {"measurement": "Plasma rhein concentration", "setting": "gavage 35 mg/kg, 0.25 h, mean (X) of 6 rats", "result": 34.95, "unit": "µg/mL"},
      {"measurement": "Plasma rhein concentration", "setting": "gavage 35 mg/kg, 0.50 h, individual rats 1-6, 35 mg/kg", "result": "22.01 µg/mL and 22.71 µg/mL and 28.87 µg/mL and 26.88 µg/mL and 55.32 µg/mL and 22.99 µg/mL"},
      {"measurement": "Plasma rhein concentration", "setting": "gavage 35 mg/kg, 0.50 h, mean (X) of 6 rats", "result": 29.80, "unit": "µg/mL"},
      {"measurement": "Plasma rhein concentration", "setting": "gavage 35 mg/kg, 0.75 h, individual rats 1-6, 35 mg/kg", "result": "18.92 µg/mL and 18.72 µg/mL and 35.43 µg/mL and 35.51 µg/mL and 45.07 µg/mL and 15.62 µg/mL"},
      {"measurement": "Plasma rhein concentration", "setting": "gavage 35 mg/kg, 0.75 h, mean (X) of 6 rats", "result": 28.21, "unit": "µg/mL"},
      {"measurement": "Plasma rhein concentration", "setting": "gavage 35 mg/kg, 1.0 h, individual rats 1-6, 35 mg/kg", "result": "19.13 µg/mL and 19.96 µg/mL and 21.75 µg/mL and 27.32 µg/mL and 37.07 µg/mL and 15.78 µg/mL"},
      {"measurement": "Plasma rhein concentration", "setting": "gavage 35 mg/kg, 1.0 h, mean (X) of 6 rats", "result": 23.50, "unit": "µg/mL"},
      {"measurement": "Plasma rhein concentration", "setting": "gavage 35 mg/kg, 2.0 h, individual rats 1-6, 35 mg/kg", "result": "8.25 µg/mL and 4.26 µg/mL and 7.88 µg/mL and 7.44 µg/mL and 7.45 µg/mL and 15.41 µg/mL"},
      {"measurement": "Plasma rhein concentration", "setting": "gavage 35 mg/kg, 2.0 h, mean (X) of 6 rats", "result": 8.45, "unit": "µg/mL"},
      {"measurement": "Plasma rhein concentration", "setting": "gavage 35 mg/kg, 3.0 h, individual rats 1-6, 35 mg/kg", "result": "4.03 µg/mL and 4.23 µg/mL and 4.39 µg/mL and 4.04 µg/mL and 2.99 µg/mL and 4.38 µg/mL"},
      {"measurement": "Plasma rhein concentration", "setting": "gavage 35 mg/kg, 3.0 h, mean (X) of 6 rats", "result": 4.01, "unit": "µg/mL"},
      {"measurement": "Plasma rhein concentration", "setting": "gavage 35 mg/kg, 4.0 h, individual rats 1-6, 35 mg/kg", "result": "3.98 µg/mL and 4.16 µg/mL and 1.70 µg/mL and 3.75 µg/mL and 1.31 µg/mL and 4.91 µg/mL"},
      {"measurement": "Plasma rhein concentration", "setting": "gavage 35 mg/kg, 4.0 h, mean (X) of 6 rats", "result": 3.30, "unit": "µg/mL"},
      {"measurement": "Plasma rhein concentration", "setting": "gavage 35 mg/kg, 6.0 h, individual rats 1-6, 35 mg/kg", "result": "3.08 μg/ml (2×) and 2.69 μg/ml and 2.89 μg/ml and 0.57 μg/ml and 0.86 μg/ml"},
      {"measurement": "Plasma rhein concentration", "setting": "gavage 35 mg/kg, 6.0 h, mean (X) of 6 rats", "result": 2.19, "unit": "µg/mL"},
      {"measurement": "Plasma rhein concentration", "setting": "gavage 35 mg/kg, 8.0 h, individual rats 1-6, 35 mg/kg", "result": "4.99 µg/mL and 0.75 µg/mL and 1.94 µg/mL and 2.05 µg/mL and 1.07 µg/mL and 0.34 µg/mL"},
      {"measurement": "Plasma rhein concentration", "setting": "gavage 35 mg/kg, 8.0 h, mean (X) of 6 rats", "result": 1.86, "unit": "µg/mL"},
      {"measurement": "Plasma rhein concentration", "setting": "gavage 35 mg/kg, 12.0 h, individual rats 1-6, 35 mg/kg", "result": "0.58 μg/ml and 0.18 μg/ml and 1.13 μg/ml and 1.35 μg/ml and ND (Lower than the minimal detectable concentration 0.13 μg/ml) and 0.36 μg/ml"},
      {"measurement": "Plasma rhein concentration", "setting": "gavage 35 mg/kg, 12.0 h, mean (X) of 6 rats", "result": 0.60, "unit": "µg/mL"},
      {"measurement": "Plasma rhein concentration", "setting": "gavage 35 mg/kg, 14.0 h, individual rats 1-6, 35 mg/kg", "result": "0.51 μg/ml and ND (Lower than the minimal detectable concentration 0.13 μg/ml) (3×) and 0.50 μg/ml and 0.56 μg/ml"},
      {"measurement": "Plasma rhein concentration", "setting": "gavage 35 mg/kg, 14.0 h, mean (X) of 6 rats", "result": 0.35, "unit": "µg/mL"},
      {"measurement": "Plasma rhein concentration", "setting": "gavage 70 mg/kg, 1.0 h, individual rats 1-6, 70 mg/kg", "result": "30.42 µg/mL and 40.86 µg/mL and 29.41 µg/mL and 35.89 µg/mL and 20.75 µg/mL and 58.65 µg/mL"},
      {"measurement": "Plasma rhein concentration", "setting": "gavage 70 mg/kg, 1.0 h, mean (x) of 6 rats", "result": 36.00, "unit": "µg/mL"},
      {"measurement": "Plasma rhein concentration", "setting": "gavage 70 mg/kg, 2.0 h, individual rats 1-6, 70 mg/kg", "result": "13.29 µg/mL and 34.33 µg/mL"},
      {"measurement": "AUC", "setting": "ig 35 mg/kg", "result": "69.52 ± 9.13", "unit": "µg·h/mL"},
      {"measurement": "actually-measured peak time", "setting": "ig 35 mg/kg", "result": "0.42 ± 0.26", "unit": "h"},
      {"measurement": "calculated half life", "setting": "ig 35 mg/kg", "result": "3.22 ± 1.21", "unit": "h"},
      {"measurement": "peak concentration", "setting": "ig 35 mg/kg", "result": "37.96 ± 12.87", "unit": "µg/mL"},
      {"measurement": "AUC", "setting": "ig 70 mg/kg", "result": "164.29 ± 44.77", "unit": "µg·h/mL"},
      {"measurement": "actually-measured peak time", "setting": "ig 70 mg/kg", "result": "0.50 ± 0.27", "unit": "h"},
      {"measurement": "calculated half life", "setting": "ig 70 mg/kg", "result": "3.68 ± 1.42", "unit": "h"},
      {"measurement": "peak concentration", "setting": "ig 70 mg/kg", "result": "54.64 ± 11.60", "unit": "µg/mL"},
      {"measurement": "AUC", "setting": "ig 140 mg/kg", "result": "237.75 ± 42.81", "unit": "µg·h/mL"},
      {"measurement": "actually-measured peak time", "setting": "ig 140 mg/kg", "result": "0.38 ± 0.14", "unit": "h"},
      {"measurement": "calculated half life", "setting": "ig 140 mg/kg", "result": "4.30 ± 1.55", "unit": "h"},
      {"measurement": "peak concentration", "setting": "ig 140 mg/kg", "result": "67.17 ± 14.62", "unit": "µg/mL"},
      {"measurement": "pharmacokinetics in the tested dosage range (dose linearity)", "setting": "ig 35-140 mg/kg", "result": "approximately linear"}
    ]}
  ]
}
